Results from patent publication US8148402B2, “Isoindolinone derivatives having inhibitory activity against T-type calcium channel and method for preparation thereof” (Korea Institute of Science and Technology, priority 2008, dated 2012).

How the values were obtained:
T-type calcium channel = T-type calcium channel (Homo sapiens, UniProt O43497); assay: Measurement of ion currents through T-type calcium channel using automated patch clamp; assay type: cell-based; details: whole-cell automated patch clamp, HEK-293 cells expressing T-type calcium channel, 10 mM Ba2+
Chain of T-type calcium channel (O43497 whole entry): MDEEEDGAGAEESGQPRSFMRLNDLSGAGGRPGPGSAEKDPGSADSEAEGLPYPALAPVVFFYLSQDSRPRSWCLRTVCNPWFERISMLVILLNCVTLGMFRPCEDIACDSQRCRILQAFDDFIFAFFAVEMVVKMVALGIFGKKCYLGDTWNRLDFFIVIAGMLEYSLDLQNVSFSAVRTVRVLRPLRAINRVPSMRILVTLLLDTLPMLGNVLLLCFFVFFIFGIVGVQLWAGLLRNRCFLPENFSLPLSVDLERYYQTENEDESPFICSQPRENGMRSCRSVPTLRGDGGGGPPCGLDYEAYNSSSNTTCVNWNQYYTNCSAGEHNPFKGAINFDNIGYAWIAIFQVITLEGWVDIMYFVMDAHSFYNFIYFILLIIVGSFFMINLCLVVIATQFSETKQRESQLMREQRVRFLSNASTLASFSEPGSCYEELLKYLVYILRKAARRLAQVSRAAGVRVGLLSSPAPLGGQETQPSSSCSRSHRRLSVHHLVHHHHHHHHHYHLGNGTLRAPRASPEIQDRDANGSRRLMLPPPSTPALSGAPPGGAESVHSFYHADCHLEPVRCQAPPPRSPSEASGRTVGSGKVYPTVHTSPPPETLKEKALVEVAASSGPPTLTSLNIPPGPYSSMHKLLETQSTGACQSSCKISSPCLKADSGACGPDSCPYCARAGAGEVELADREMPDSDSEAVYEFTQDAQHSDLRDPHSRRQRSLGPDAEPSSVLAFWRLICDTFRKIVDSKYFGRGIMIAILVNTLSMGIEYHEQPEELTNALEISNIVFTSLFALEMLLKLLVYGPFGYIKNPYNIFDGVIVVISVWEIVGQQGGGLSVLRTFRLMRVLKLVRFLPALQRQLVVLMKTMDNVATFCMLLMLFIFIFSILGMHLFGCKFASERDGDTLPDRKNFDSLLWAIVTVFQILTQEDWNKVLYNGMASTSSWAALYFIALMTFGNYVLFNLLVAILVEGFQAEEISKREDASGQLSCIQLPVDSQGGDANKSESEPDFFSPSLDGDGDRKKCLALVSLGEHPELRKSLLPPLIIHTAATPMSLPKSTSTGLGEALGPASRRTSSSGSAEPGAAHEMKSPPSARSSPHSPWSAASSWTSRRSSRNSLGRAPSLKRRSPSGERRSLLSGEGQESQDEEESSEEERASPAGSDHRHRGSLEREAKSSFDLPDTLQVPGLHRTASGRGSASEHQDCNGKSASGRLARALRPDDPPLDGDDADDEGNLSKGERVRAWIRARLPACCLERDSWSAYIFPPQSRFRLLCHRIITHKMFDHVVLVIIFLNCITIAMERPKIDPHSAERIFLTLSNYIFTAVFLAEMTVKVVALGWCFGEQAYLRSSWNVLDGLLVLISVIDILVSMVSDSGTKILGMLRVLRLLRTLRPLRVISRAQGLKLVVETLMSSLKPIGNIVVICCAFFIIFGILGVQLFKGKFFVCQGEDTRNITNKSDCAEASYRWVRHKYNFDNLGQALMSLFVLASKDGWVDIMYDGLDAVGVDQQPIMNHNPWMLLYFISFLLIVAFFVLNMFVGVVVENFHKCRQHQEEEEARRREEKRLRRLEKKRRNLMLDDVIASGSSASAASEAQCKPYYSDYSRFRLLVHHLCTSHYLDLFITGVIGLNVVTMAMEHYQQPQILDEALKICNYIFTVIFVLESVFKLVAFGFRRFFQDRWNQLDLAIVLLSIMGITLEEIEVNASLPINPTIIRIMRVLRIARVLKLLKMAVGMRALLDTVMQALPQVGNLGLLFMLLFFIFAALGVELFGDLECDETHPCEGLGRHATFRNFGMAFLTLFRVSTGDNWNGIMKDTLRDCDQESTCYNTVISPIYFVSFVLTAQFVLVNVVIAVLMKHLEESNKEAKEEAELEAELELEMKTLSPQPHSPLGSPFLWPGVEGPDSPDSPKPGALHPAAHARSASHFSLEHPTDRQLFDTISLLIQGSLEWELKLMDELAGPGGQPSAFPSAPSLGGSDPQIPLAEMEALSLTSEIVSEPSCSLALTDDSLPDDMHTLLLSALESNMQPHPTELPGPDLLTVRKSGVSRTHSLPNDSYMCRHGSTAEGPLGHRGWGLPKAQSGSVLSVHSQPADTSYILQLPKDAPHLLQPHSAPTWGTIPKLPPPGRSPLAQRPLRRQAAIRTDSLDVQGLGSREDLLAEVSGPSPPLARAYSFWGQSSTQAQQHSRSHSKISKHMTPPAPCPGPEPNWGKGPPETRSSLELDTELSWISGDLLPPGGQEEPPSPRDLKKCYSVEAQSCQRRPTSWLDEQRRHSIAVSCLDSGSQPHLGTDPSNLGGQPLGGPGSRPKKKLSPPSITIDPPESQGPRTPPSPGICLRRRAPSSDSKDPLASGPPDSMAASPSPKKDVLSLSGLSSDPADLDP
Excerpt: The selected compounds were used in a second assay for T-type calcium channel inhibiting activity using electrophysiological whole cell patch clamp method, wherein mammal HEK293 cell lines, which are originated from human kidney carcinoma cells and which specifically express alG of T-type calcium channel, were used for the second assay. As a reference drug, mibefradil which had been developed as T-type calcium channel inhibitor was used.
Stably expressed T-type calcium channels in Human Embryonic Kidney (HEK)-293 cell were provided by Korea Research Institute of Bioscience and Biotechnology (KRIBB) and hERG (human ether-a-go-go-related gene) channels induced by a Tet-expression system expressed in HEK-293 cell were purchased from Iongate (Frankfurt, Germany). In a humidified 5% CO2 incubator at 37° C., T-type calcium channel expressed cells were maintained in Dulbecco's modified Eagle's medium (DMEM) including 10% Fetal Bovine Serum (FBS), and hERG channel expressed cells were maintained in MEM with 10% FBS. For hERG channel expression, the Tet-expression system was activated by adding 1 μg/ml Doxycyclin into the hERG channel cell growth medium 20 h prior to use. Cell lines were subcultured once in three days and used for patch clamp recordings at final confluence of 50-80%. To harvest cells, cell detacher, Trypsin-EDTA (0.25×) was added into the dish and single cells were made using a pipette. Trypsin was removed by centrifugation at 1100 rpm for 3 min. Cells were automatically suspended after adding external cellular solution at room temperature.
The composition of solution for measuring T-type calcium channel and hERG channel activity is following: 140 mM NaCl, 2 mM CaCl2, 4 mM KCl, 1 mM MgCl2, 5 mM D-glucose and 10 mM HEPES (pH 7.4) for external cellular solution, 50 mM KCl, 10 mM NaCl, 60 mM KF, 2 mM MgCl2, 10 mM HEPES and 20 mM EGTA (pH 7.2) for internal cellular solution and 80 mM NaCl, 35 mM CaCl2, 3 mM KCl, 10 mM MgCl2 and 10 mM HEPES (pH 7.4) for seal enhancer. T-type calcium channel activity was recorded after adding 10 mM Ba^2+ into external solution. Each compound dissolved in 100% DMSO with a final concentration of 100 mM was diluted to 10 nM˜100 μM range in external solution with 10 mM Ba^2+ for T-type calcium channel and no Ba^2+ for hERG channel recordings.
In all experiments, auto patch clamp machine NPC©-16 Patchliner (Nanion Technologies, Germany) and whole-cell patch clamp technique were used. Channel current was recorded by EPC10 (HEKA, Germany) amplifier. Cell suspension and patch solutions were automatically divided into the chip (NPC-16 Chip, Nanion Technologies, Germany). Inward current was recorded at −20 mV depolarization potential at intervals of 10 s during 300 ms with −100 mV holding potential for T-type calcium channels, and tail current was recorded at −50 mV at intervals of 10 s during 500 ms after 20 mV depolarization during 200 ms with −80 mV holding potential for hERG channels. Compounds at each concentration were applied to the cell during 20 s. Inhibition curves and IC50 values were automatically calculated from peak currents using data analysis program, IGOR Pro (WaveMetrics, USA).

α1G T-type Ca2+ channels = target: T1, α1G T-type Ca2+ channels (Homo sapiens, UniProt O43497); assay: Assay for inhibitory activity against T-type calcium channel using FDSS6000; assay type: cell-based; details: HEK293 cells expressing α1G and Kir2.1, KCl (70 mM) depolarization, fluo3/AM, read-out: FDSS (% Inhibition, at 10 μM)
T1 construct: expressed in transfected cells
T1 sequence (O43497 whole entry): as above
Experimental: Meanwhile, the novel compounds of Chemical Formula 1 in accordance with the present invention were assayed for antagonistic activity against T-type calcium channels. In this regard, an examination was made of the % inhibition of the compounds against T-type calcium channel using FDSS6000.
In the present invention, in order to search for an efficient inhibitor against T-type calcium channel, a primary assay for T-type calcium channel inhibiting activity was conducted by a high-efficient assay using FDSS6000, wherein mammal HEK293 cell lines (originated from human kidney carcinoma cells), which specifically express alG of T-type calcium channel, were used for the primary assay.
HEK293 cells which stably express both α1G and Kir2.1 subunits were grown in Dulbecoo's modified Eagle's medium supplemented with 10% (v/v) fetal bovine serum, penicillin (100 U/ml), streptomycin (100 µg/ml), geneticin (500 µg/ml), and puromycin (1 μg/ml) at 37° C. in a humid atmosphere of 5% CO2 and 95% air. Cells were seeded into 96-well black wall clear bottom plates at a density of 40,000 cells/well and were used on the next day for high-throughput screening (HTS) FDSS6000 assay. For FDSS6000 assay, cells were incubated for 60 min at room temperature with 5 µM fluo3/AM and 0.001% Pluronic F-127 in a HEPES-buffered solution composed of (in MM): 115 NaCl, 5.4 KCl, 0.8 MgCl2, 1.8 CaCl2, 20 HEPES, 13.8 glucose (pH 7.4). During fluorescence-based FDSS6000 assay, […]1G T-type Ca^2+ channels were activated using a high concentration of KCl (70 mM) in 10 mM CaCl2 contained HEPES-buffered solution, and the increase in [Ca^2+]i by KCl-induced depolarization was detected. All data were collected and analyzed using FDSS6000 and related software (Hamamatsu, Japan).

SMILES | IC50 (T-type calcium channel) | inhibition at 10 µM (α1G T-type Ca2+ channels)
O=C(NCCCN1CCCCC1)c1ccc2c(c1)C(=O)N(Cc1ccccc1)C2 [Compound 1, 2-benzyl-3-oxo-N-(3-(piperidin-1-yl)propyl)isoindoline-5-carboxamide] | 9570 nM | 22%
CCC1CCCCN1CCCNC(=O)c1ccc2c(c1)C(=O)N(Cc1cccc(Br)c1)C2 (centres unmarked) [Compound 24, 2-(3-bromobenzyl)-N-(3-(2-ethylpiperidin-1-yl)propyl)-3-oxoisoindoline-5-carboxamide] | 4070 nM | 46%
CC(C)C1CCCCN1CCCNC(=O)c1ccc2c(c1)C(=O)N(Cc1ccc(Br)cc1)C2 (centres unmarked) [Compound 43, 2-(4-bromobenzyl)-N-(3-(2-isopropylpiperidin-1-yl)propyl)-3-oxoisoindoline-5-carboxamide] | 5100 nM | 51.7%
CC(C)C1CCCCN1CCCNC(=O)c1ccc2c(c1)C(=O)N(Cc1cccc(I)c1)C2 (centres unmarked) [Compound 44, 2-(3-iodobenzyl)-N-(3-(2-isopropylpiperidin-1-yl)propyl)-3-oxoisoindoline-5-carboxamide] | 4360 nM | 60.7%
CC(C)C1CCCCN1CCCNC(=O)c1ccc2c(c1)C(=O)N(Cc1ccc(I)cc1)C2 (centres unmarked) [Compound 45, 2-(4-iodobenzyl)-N-(3-(2-isopropylpiperidin-1-yl)propyl)-3-oxoisoindoline-5-carboxamide] | 1070 nM | 58.9%
CCCCC1CCCCN1CCCNC(=O)c1ccc2c(c1)C(=O)N(Cc1ccccc1)C2 (centres unmarked) [Compound 46, 2-benzyl-N-(3-(2-butylpiperidin-1-yl)propyl)-3-oxoisoindoline-5-carboxamide] | 2650 nM | 55.3%
CCCCC1CCCCN1CCCNC(=O)c1ccc2c(c1)C(=O)N(Cc1cccc(F)c1)C2 (centres unmarked) [Compound 47, N-(3-(2-butylpiperidin-1-yl)propyl)-2-(3-fluorobenzyl)-3-oxoisoindoline-5-carboxamide] | 2300 nM | 49%
CCCCC1CCCCN1CCCNC(=O)c1ccc2c(c1)C(=O)N(Cc1cccc(Cl)c1)C2 (centres unmarked) [Compound 49, N-(3-(2-butylpiperidin-1-yl)propyl)-2-(3-chlorobenzyl)-3-oxoisoindoline-5-carboxamide] | 620 nM | 71.8%
O=C(NCCCN1CCCCC1c1ccccc1)c1ccc2c(c1)C(=O)N(Cc1ccc(Br)cc1)C2 (centres unmarked) [Compound 61, 2-(4-bromobenzyl)-3-oxo-N-(3-(2-phenylpiperidin-1-yl)propyl)isoindoline-5-carboxamide] | 1070 nM | 45.6%

Further molecules by falling IC50 (T-type calcium channel), results first:

IC50 (T-type calcium channel) | inhibition at 10 µM (α1G T-type Ca2+ channels) | SMILES
9770 nM | 33.4% | O=C(NCCCN1CCCCC1)c1ccc2c(c1)C(=O)N(Cc1ccc(Br)cc1)C2 [Compound 7, 2-(4-bromobenzyl)-3-oxo-N-(3-(piperidin-1-yl)propyl)isoindoline-5-carboxamide]
6870 nM | 53.8% | CCCC1CCCCN1CCCNC(=O)c1ccc2c(c1)C(=O)N(Cc1ccc(I)cc1)C2 (centres unmarked) [Compound 36, 2-(4-iodobenzyl)-3-oxo-N-(3-(2-propylpiperidin-1-yl)propyl)isoindoline-5-carboxamide]
4150 nM | 44.4% | CC(C)C1CCCCN1CCCNC(=O)c1ccc2c(c1)C(=O)N(Cc1cccc(Br)c1)C2 (centres unmarked) [Compound 42, 2-(3-bromobenzyl)-N-(3-(2-isopropylpiperidin-1-yl)propyl)-3-oxoisoindoline-5-carboxamide]
1920 nM | 62.1% | CCCCC1CCCCN1CCCNC(=O)c1ccc2c(c1)C(=O)N(Cc1ccc(F)cc1)C2 (centres unmarked) [Compound 48, N-(3-(2-butylpiperidin-1-yl)propyl)-2-(4-fluorobenzyl)-3-oxoisoindoline-5-carboxamide]
1740 nM | 60.8% | CCCC1CCCCN1CCCNC(=O)c1ccc2c(c1)C(=O)N(Cc1cccc(Br)c1)C2 (centres unmarked) [Compound 33, 2-(3-bromobenzyl)-3-oxo-N-(3-(2-propylpiperidin-1-yl)propyl)isoindoline-5-carboxamide]
1540 nM | 55.2% | O=C(NCCCN1CCCCC1c1ccccc1)c1ccc2c(c1)C(=O)N(Cc1cccc(Br)c1)C2 (centres unmarked) [Compound 60, 2-(3-bromobenzyl)-3-oxo-N-(3-(2-phenylpiperidin-1-yl)propyl)isoindoline-5-carboxamide]
1010 nM | 56.7% | CC(C)C1CCCCN1CCCNC(=O)c1ccc2c(c1)C(=O)N(Cc1cccc(Cl)c1)C2 (centres unmarked) [Compound 40, 2-(3-chlorobenzyl)-N-(3-(2-isopropylpiperidin-1-yl)propyl)-3-oxoisoindoline-5-carboxamide]
